Test results reported in US11547681B2, “N-acylethanolamide derivatives and uses thereof” (ELIEM THERAPEUTICS, INC., priority 2016, dated 2023).
Read-outs that look alike come from different tables or passages of the source.

How the values were obtained:
[1] = Simulated intestinal fluid (SIF) stability in the presence of various enzymes; format: in vitro ADME; settings: for % Remaining of Initial: 1 μM, n = 1
Outline: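 Test article at 1 μM final was dosed into pre-warmed (37 °C) simulated intestinal fluid, potassium phosphate buffer at pH 6.8, spiked with individual enzymes. Timed samples were held at 4 °C, then centrifuged and quantified against calibration standards in matched matrix.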

[2] = male, Sprague-Dawley, rat, in vivo, po
[3] = Summary of half life data (Table A), matrix not stated; format: in vitro ADME
[4] = Simulated intestinal fluid stability, SIF containing pancreatin; format: in vitro ADME; settings: for % Remaining of Initial (n = 1): 1 μM (Example 14); for Measured Concentration of Drug: test article dosed at 1 μM (Example 14)
Procedure: (§1) Studies were carried out in simulated intestinal fluid containing pancreatin. Simulated intestinal fluid was prepared by dissolving 6.8 g of monobasic potassium phosphate in 1.0 L of water. Pancreatin was then added to the solution and the pH was adjusted to 6.8. A DMSO stock was first prepared for the test articles. Aliquots of the DMSO solution were dosed into 300 μL of matrix, which had been pre-warmed to 37° C., at a final test article concentration of 1 μM. An individual tube was dosed for each time point. At each time point (0, 15, 30, 60, and 120 minutes), 900 μL of ice-cold acetonitrile containing 1.0% formic acid was added to an individual tube. Starting time for each tube was staggered such that all timepoints would finish at the same time. After the conclusion of the experiment, tubes were mixed and then centrifuged at 3,000 rpm for 10 minutes. Calibration standards were prepared in matched matrix. […] Analytical conditions are outlined in Appendix 11-1.
as §1, with “prepared for test articles.” for “prepared for the test articles.”, “Aliquots of DMSO solution” for “Aliquots of the DMSO solution”, “individual tube. The starting time for” for “individual tube. Starting time for”, “that all time points would finish” for “that all timepoints would finish”, “in Appendix 14-1.” for “in Appendix 11-1.”

[5] = SIF + Carboxypeptidase A, 0 min
[6] = SIF + Carboxypeptidase A, 15 min
[7] = SIF + Carboxypeptidase A, 30 min
[8] = SIF + Carboxypeptidase A, 60 min
[9] = SIF + Carboxypeptidase A, 120 min
[10] = SIF + Carboxypeptidase B, 0 min
[11] = SIF + Carboxypeptidase B, 15 min
[12] = SIF + Carboxypeptidase B, 30 min
[13] = SIF + Carboxypeptidase B, 60 min
[14] = SIF + Carboxypeptidase B, 120 min
[15] = simulated intestinal fluid with carboxypeptidase A, pH 6.8, SIF + Carboxypeptidase A, read-out: Half-life
[16] = simulated intestinal fluid with carboxypeptidase B, pH 6.8, SIF + Carboxypeptidase B, read-out: Half-life
[17] = simulated intestinal fluid with chymotrypsin, pH 6.8, SIF + Chymotrypsin, read-out: Half-life
[18] = simulated intestinal fluid with elastase, pH 6.8, SIF + Elastase, read-out: Half-life
[19] = simulated intestinal fluid with trypsin, pH 6.8, SIF + Trypsin, read-out: Half-life

With `CCCCCCCCCCCCCCCC(=O)NCCOC(=O)CCC(=O)OC(CO)CO` [Compound I-8] the “% Remaining of Initial” value [1, 5] was 100%, the “% Remaining of Initial” value [1, 6] was 33% and the “% Remaining of Initial” value [1, 7] was 8.7%. The “% Remaining of Initial” value [1, 8] was under 1.0%, the “% Remaining of Initial” value [1, 9] was under 1.0% and the “% Remaining of Initial” value [1, 10] was 100%. The “% Remaining of Initial” value [1, 11] was 30%, the “% Remaining of Initial” value [1, 12] was 7.1% and the “% Remaining of Initial” value [1, 13] was under 1.0%. The “% Remaining of Initial” value [1, 14] was under 1.0%, the “% Remaining of Initial” value ([1]; SIF + Chymotrypsin, 0 min) was 100% and the “% Remaining of Initial” value ([1]; SIF + Chymotrypsin, 15 min) was 36%. The “% Remaining of Initial” value ([1]; SIF + Chymotrypsin, 30 min) was 8.7%, the “% Remaining of Initial” value ([1]; SIF + Chymotrypsin, 60 min) was under 1.0% and the “% Remaining of Initial” value ([1]; SIF + Chymotrypsin, 120 min) was under 1.0%. The “% Remaining of Initial” value ([1]; SIF + Elastase, 0 min) was 100%, the “% Remaining of Initial” value ([1]; SIF + Elastase, 15 min) was 38% and the “% Remaining of Initial” value ([1]; SIF + Elastase, 30 min) was 17%. For the same molecule, the “% Remaining of Initial” value ([1]; SIF + Elastase, 60 min) was 16%, the “% Remaining of Initial” value ([1]; SIF + Elastase, 120 min) was 17% and the “% Remaining of Initial” value ([1]; SIF + Trypsin, 0 min) was 100%. For the same molecule, the “% Remaining of Initial” value ([1]; SIF + Trypsin, 15 min) was 52%, the “% Remaining of Initial” value ([1]; SIF + Trypsin, 30 min) was 31% and the “% Remaining of Initial” value ([1]; SIF + Trypsin, 60 min) was 28%. For the same molecule, the “% Remaining of Initial” value ([1]; SIF + Trypsin, 120 min) was 25%, the half-life at 1 μM [1, 15] was under 15 min and the half-life at 1 µM ([1]; simulated intestinal fluid with carboxypeptidase A, pH 6.8, SIF + Carboxypeptidase A, read-out: Half-life, calculated value in parentheses) was 9.2 min. It also gave a half-life at 1 µM [1, 16] of under 15 min, a half-life at 1 µM ([1]; simulated intestinal fluid with carboxypeptidase B, pH 6.8, SIF + Carboxypeptidase B, read-out: Half-life, calculated value in parentheses) of 8.5 min and a half-life at 1 μM [1, 17] of under 15 min. The half-life at 1 μM ([1]; simulated intestinal fluid with chymotrypsin, pH 6.8, SIF + Chymotrypsin, read-out: Half-life, calculated value in parentheses) was 9.6 min, the half-life at 1 μM [1, 18] was under 15 min and the half-life at 1 µM ([1]; simulated intestinal fluid with elastase, pH 6.8, SIF + Elastase, read-out: Half-life, calculated value in parentheses) was 12 min. The half-life at 1 μM [1, 19] was 25 min, the Bioavailability [2] was 17.3% and the “Dose-normalized AUC∞ of PEA” value [2] was 11.2 kg·ng·h/mL/mg. The half-life [3] was 6.2 min, the “% Remaining of Initial (n = 1)” value ([4]; 0 min) was 100% and the “Measured Concentration of Drug” value ([4]; 0 min) was 0.94 µM. For the same molecule, the “% Remaining of Initial (n = 1)” value ([4]; 15 min) was 17%, the “Measured Concentration of Drug” value ([4]; 15 min) was 0.16 µM and the “% Remaining of Initial (n = 1)” value ([4]; 30 min) was 6.8%. For the same molecule, the “Measured Concentration of Drug” value ([4]; 30 min) was 0.064 µM, the “% Remaining of Initial (n = 1)” value ([4]; 60 min) was under 1.3% and the “Measured Concentration of Drug” value ([4]; 60 min) was 0 µM. For the same molecule, the “% Remaining of Initial (n = 1)” value ([4]; 120 min) was under 1.3%, the “Measured Concentration of Drug” value ([4]; 120 min) was 0 µM and the half-life at 1 μM ([4]; simulated intestinal fluid with pancreatin, pH 6.8, 1 μM (Example 14)) was 6.2 min.

In the case of `CCCCCCCCCCCCCCCC(=O)NCCOC(=O)CCC(=O)OC(COC(=O)CCC)COC(=O)CCC` [Compound I-16], the “% Remaining of Initial” value [1, 5] is reported as 100%, the “% Remaining of Initial” value [1, 6] is reported as 88% and the “% Remaining of Initial” value [1, 7] is reported as 74%. For the same molecule, the “% Remaining of Initial” value [1, 8] was 60%, the “% Remaining of Initial” value [1, 9] was 32% and the “% Remaining of Initial” value [1, 10] was 100%. The “% Remaining of Initial” value [1, 11] was 94%, the “% Remaining of Initial” value [1, 12] was 87% and the “% Remaining of Initial” value [1, 13] was 68%. For the same molecule, the “% Remaining of Initial” value [1, 14] was 37%, the “% Remaining of Initial” value ([1]; SIF + Chymotrypsin, 0 min) was 100% and the “% Remaining of Initial” value ([1]; SIF + Chymotrypsin, 15 min) was 103%. For the same molecule, the “% Remaining of Initial” value ([1]; SIF + Chymotrypsin, 30 min) was 90%, the “% Remaining of Initial” value ([1]; SIF + Chymotrypsin, 60 min) was 68% and the “% Remaining of Initial” value ([1]; SIF + Chymotrypsin, 120 min) was 35%. The “% Remaining of Initial” value ([1]; SIF + Elastase, 0 min) was 100%, the “% Remaining of Initial” value ([1]; SIF + Elastase, 15 min) was 72% and the “% Remaining of Initial” value ([1]; SIF + Elastase, 30 min) was 50%. The “% Remaining of Initial” value ([1]; SIF + Elastase, 60 min) was 27%, the “% Remaining of Initial” value ([1]; SIF + Elastase, 120 min) was 7.1% and the “% Remaining of Initial” value ([1]; SIF + Trypsin, 0 min) was 100%. For the same molecule, the “% Remaining of Initial” value ([1]; SIF + Trypsin, 15 min) was 89%, the “% Remaining of Initial” value ([1]; SIF + Trypsin, 30 min) was 82% and the “% Remaining of Initial” value ([1]; SIF + Trypsin, 60 min) was 62%. The “% Remaining of Initial” value ([1]; SIF + Trypsin, 120 min) was 37%, the half-life at 1 μM [1, 15] was 75 min and the half-life at 1 µM [1, 16] was 89 min. The half-life at 1 μM [1, 17] was 84 min, the half-life at 1 μM [1, 18] was 31 min and the half-life at 1 μM [1, 19] was 85 min. For the same molecule, the Bioavailability [2] was 12.1%, the half-life [3] was under 1 min and the “% Remaining of Initial (n = 1)” value ([4]; 0 min) was 100%. For the same molecule, the “Measured Concentration of Drug” value ([4]; 0 min) was 0.088 µM, the “% Remaining of Initial (n = 1)” value ([4]; 15 min) was under 4.5% and the “Measured Concentration of Drug” value ([4]; 15 min) was 0 µM. The “% Remaining of Initial (n = 1)” value ([4]; 30 min) was under 4.5%, the “Measured Concentration of Drug” value ([4]; 30 min) was 0 µM and the “% Remaining of Initial (n = 1)” value ([4]; 60 min) was under 4.5%. The “Measured Concentration of Drug” value ([4]; 60 min) was 0 µM, the “% Remaining of Initial (n = 1)” value ([4]; 120 min) was under 4.5% and the “Measured Concentration of Drug” value ([4]; 120 min) was 0 µM.
